Experimental data published in paper PMC10879502, “Linking ATP and allosteric sites to achieve superadditive binding with bivalent EGFR kinase inhibitors” (Communications Chemistry, 2024).
“And” between values parts separate entries of the source, which are not always exact repeats. Identical values can stand only once. Like-named read-outs stand apart in the source and are kept apart here. Blank lines part the entries; values can stand above or below the compound they belong to.

What was measured:
[1] = tested on: Ba/F3 cells, wildtype EGFR; settings: Ba/F3 ref 4 Wittlinger and Heppner; read-out: EGFR EC50, wt; cited from earlier work
Ba/F3 cells, L858R EGFR = settings: Ba/F3 ref 4 Wittlinger and Heppner; read-out: EGFR EC50, LR; cited from earlier work
[2] = tested on: Ba/F3 cells, L858R/T790M EGFR; settings: Ba/F3 ref 4 Wittlinger and Heppner; read-out: EGFR EC50, LR/TM; cited from earlier work
[3] = tested on: Ba/F3 cells, LR/TM/CS EGFR; settings: Ba/F3 ref 4 Wittlinger and Heppner; cited from earlier work
WT EGFR kinase domain = biological target: T1, WT EGFR kinase domain (Homo sapiens, UniProt P00533); test: HTRF KinEASE-TK kinase activity assay; format: biochemical
T1 construct: The EGFR kinase domain (residues 696–1022) was cloned into pTriEx; 6xHis (N, cleaved yes); GST (N, cleaved yes); made in house; host or cells: SF9 insect cells, baculovirus

[4] = biological target: T2, EGFR L858R (LR) kinase domain (Homo sapiens, UniProt P00533, L858R); test: HTRF KinEASE-TK kinase activity assay; format: biochemical
T2 construct: The EGFR kinase domain (residues 696–1022) was cloned into pTriEx; 6xHis (N, cleaved yes); GST (N, cleaved yes); made in house; host or cells: SF9 insect cells, baculovirus

[5] = biological target: T3, EGFR L858R/T790M (LRTM) kinase domain (Homo sapiens, UniProt P00533, L858R/T790M); test: HTRF KinEASE-TK kinase activity assay; format: biochemical; settings: for linking coefficients: limits estimated from LRTM IC50 values; for Linking coefficient E: LRTM IC50, upper limit; for activity: LRTM, read-out: percent inhibition
T3 construct: The EGFR kinase domain (residues 696–1022) was cloned into pTriEx; 6xHis (N, cleaved yes); GST (N, cleaved yes); made in house; host or cells: SF9 insect cells, baculovirus

[6] = biological target: T4, EGFR L858R/T790M/C797S (LRTMCS) kinase domain (Homo sapiens, UniProt P00533, C797S/L858R/T790M); test: HTRF KinEASE-TK kinase activity assay; format: biochemical
T4 construct: The EGFR kinase domain (residues 696–1022) was cloned into pTriEx; 6xHis (N, cleaved yes); GST (N, cleaved yes); made in house; host or cells: SF9 insect cells, baculovirus

[7] = tested on: EGFR phosphorylation (pY1068) in H1975 cells; test: Western blot; format: cell-based, human; settings: H1975, 6 h
Experimental: H1975, H3255, H3255GR and HCC827 lung adenocarcinoma cells (obtained from Dr. Pasi Jänne in Dana-Farber Cancer Institute, 2022) were cultured in RPMI 1640 media (Corning, 1004-CV) supplemented with 10% FBS (Tissue Culture Biologicals, 35-010-CV) and 1% penicillin-streptomycin (P/S, Corning, 30-002-CI). All cell lines were tested negative for Mycoplasma using Myco-Sniff-Rapid™ Mycoplasma Luciferase Detection Kit Plus PCR Primer Set (MP biomedicals, 0930504-CF) and were passaged and/or used for no longer than 4 weeks for all experiments H1975 and HCC-827 cells were seeded in 6-well plates with 400,000 cells per well and incubated overnight. H3255 and H3255GR cells were seeded in 12-well plates with 200,000 cells per well and were grown to confluency after 48 h. Culture medium was removed, cells washed with PBS, and lysed with lysis buffer containing 5 M NaCl, 1 M TRIS pH 8.0, 10% SDS, 10% Triton X-100 and a tablet of protease and phosphatase inhibitor. Protein lysate concentration was analyzed using Pierce BCA kit (ThermoFisher, 23225). Protein samples (10 µg) were resolved on hand-cast Criterion Tris-HCl protein gels. Primary antibodies used; phospho-EGFR (Tyr1068; #2234, 1:1,000), EGFR (#4267; 1:1,000), phospho-AKT (Ser473; #4060, 1:1,000), AKT (#9272, 1:1,000), phospho-ERK1/2 (Thr202/Tyr204; #4370, 1:1,000), and ERK1/2 (#4695, 1:1,000) antibodies; were purchased from Cell Signaling Technology. Secondary Goat anti-rabbit IgG starbright blue 700 (Biorad, 64484700) and Anti-tubulin hFAB Rhodamine Tubulin (Bio-Rad, 64512248). Western blots were visualized with the ChemiDoc MP imager (Bio-Rad) utilizing the Image Lab Touch Software (version 2.4.0.03). All Western blot images are representatives of at least 3 independent replicate experiments.

[8] = enzyme 10 nM, ATP 100 µM, read-out: Biochemical EGFR IC50, WT
[9] = enzyme 0.1 nM, ATP 100 µM, read-out: Biochemical EGFR IC50, LR
[10] = Table S1, ATP 100 µM, read-out: IC50, LRTM
[11] = enzyme 0.02 nM, ATP 100 µM, read-out: Biochemical EGFR IC50, LRTM
[12] = enzyme 0.02 nM, ATP 100 µM, read-out: Biochemical EGFR IC50, LRTMCS

Compound: C=CC(=O)Nc1cc(Nc2nccc(-c3cn(C)c4ccccc34)n2)c(OC)cc1N(C)CCN(C)C [AZD9291]
EC50 [1]: 110 ± 40 nM
EC50 (Ba/F3 cells, L858R EGFR): 3.3 ± 0.6 nM
EC50 [2]: 8 nM
EC50 [3]: 1200 ± 130 nM

IC50 (WT EGFR kinase domain; [8]): > 10000 nM
IC50 (WT EGFR kinase domain; read-out: IC50, WT): ≥ 1000 nM
activity at 3.181 pM ([4]; LR, [Inhibitor] 0.00318089 nM, read-out: percent inhibition): 103%
activity at 7.783 pM ([4]; LR, [Inhibitor] 0.00778314 nM, read-out: percent inhibition): 94.6%
activity at 19.04 pM ([4]; LR, [Inhibitor] 0.0190441 nM, read-out: percent inhibition): 99.4%
activity at 46.6 pM ([4]; LR, [Inhibitor] 0.0465979 nM, read-out: percent inhibition): 97.2%
activity at 0.000114018 µM ([4]; LR, [Inhibitor] 0.114018 nM, read-out: percent inhibition): 94.5%
activity at 0.000278983 µM ([4]; LR, [Inhibitor] 0.278983 nM, read-out: percent inhibition): 83%
activity at 0.000682626 µM ([4]; LR, [Inhibitor] 0.682626 nM, read-out: percent inhibition): 67.9%
activity at 0.00167028 µM ([4]; LR, [Inhibitor] 1.67028 nM, read-out: percent inhibition): 39.3%
activity at 0.0040869 µM ([4]; LR, [Inhibitor] 4.0869 nM, read-out: percent inhibition): 19.2%
activity at 0.01 µM ([4]; LR, [Inhibitor] 10 nM, read-out: percent inhibition): 9.7%
activity at 1.3 pM ([4]; LR, [Inhibitor] […], read-out: percent inhibition): 102%
IC50 [4, 9]: 1300 ± 100 nM
IC50 ([4]; read-out: IC50, LR): ≥ 1000 nM
IC50 [5, 10]: ≥ 1000 nM
IC50 [5, 11]: > 10000 nM
linking coefficients [5]: > 2e+07 M⁻¹
activity at 3.181 pM ([6]; LRTMCS, [Inhibitor] 0.00318089 nM, read-out: percent inhibition): 103%
activity at 7.783 pM ([6]; LRTMCS, [Inhibitor] 0.00778314 nM, read-out: percent inhibition): 94.6%
activity at 19.04 pM ([6]; LRTMCS, [Inhibitor] 0.0190441 nM, read-out: percent inhibition): 99.4%
activity at 46.6 pM ([6]; LRTMCS, [Inhibitor] 0.0465979 nM, read-out: percent inhibition): 97.2%
activity at 0.000114018 µM ([6]; LRTMCS, [Inhibitor] 0.114018 nM, read-out: percent inhibition): 94.5%
activity at 0.000278983 µM ([6]; LRTMCS, [Inhibitor] 0.278983 nM, read-out: percent inhibition): 83%
activity at 0.000682626 µM ([6]; LRTMCS, [Inhibitor] 0.682626 nM, read-out: percent inhibition): 67.9%
activity at 0.00167028 µM ([6]; LRTMCS, [Inhibitor] 1.67028 nM, read-out: percent inhibition): 39.3%
activity at 0.0040869 µM ([6]; LRTMCS, [Inhibitor] 4.0869 nM, read-out: percent inhibition): 19.2%
activity at 0.01 µM ([6]; LRTMCS, [Inhibitor] 10 nM, read-out: percent inhibition): 9.7%
activity at 1.3 pM ([6]; LRTMCS, [Inhibitor] […], read-out: percent inhibition): 102%
IC50 [6, 12]: > 10000 nM
IC50 ([6]; read-out: IC50, LRTMCS): ≥ 1000 nM
Compound: CSc1nc(-c2cccc(CN3C(=O)c4ccccc4Nc4ccc(F)cc43)c2)c(-c2ccnc(NC(C)=O)c2)[nH]1 [Compound 1]
suppression of EGFR phosphorylation [7]: limited ability to suppress phosphorylation

IC50 (WT EGFR kinase domain; [8]): > 1000 nM
IC50 [5, 11]: 52 nM
IC50 [6, 12]: 39 to 59 nM
Compound: O=C1c2cc(F)ccc2Nc2ccccc2N1Cc1ccccc1 [Compound 9, reference compound]

IC50 (WT EGFR kinase domain; [8]): < 10 nM
activity ([4]; LR, [Inhibitor] 1.3e-5 nM, read-out: percent inhibition): 95.4% and 96.9% and 90.5%
activity ([4]; LR, [Inhibitor] 3.18e-5 nM, read-out: percent inhibition): 86.7% and 90.8% and 88.7%
activity ([4]; LR, [Inhibitor] 7.78e-5 nM, read-out: percent inhibition): 65.8% and 67.4% and 61.5%
activity at 190.4 fM ([4]; LR, [Inhibitor] 0.000190441 nM, read-out: percent inhibition): 34.4%
activity at 466 fM ([4]; LR, [Inhibitor] 0.000465979 nM, read-out: percent inhibition): 15.1%
activity at 1.14 pM ([4]; LR, [Inhibitor] 0.00114018 nM, read-out: percent inhibition): 9.97%
activity at 2.79 pM ([4]; LR, [Inhibitor] 0.00278983 nM, read-out: percent inhibition): 5.05%
activity at 6.826 pM ([4]; LR, [Inhibitor] 0.00682626 nM, read-out: percent inhibition): 3.24%
activity at 16.7 pM ([4]; LR, [Inhibitor] 0.0167028 nM, read-out: percent inhibition): 1.45%
IC50 [4, 9]: 1.2 ± 0.09 nM
Linking coefficient E ([5]; ATP fragment 5, allosteric fragment 10): < 0.88 M⁻¹
Linking coefficient E ([5]; ATP fragment 6, allosteric fragment 10): < 0. 51 M-1
activity ([5]; [Inhibitor] 1.3e-5 nM): 80.3% and 89% and 81.1%
activity ([5]; [Inhibitor] 3.18e-5 nM): 69.3% and 75.7% and 76.3%
activity ([5]; [Inhibitor] 7.78e-5 nM): 34.1% and 36.2% and 33.7%
activity ([5]; [Inhibitor] 0.000190441 nM, 190.4 fM): 16.3% and 13.5%
activity ([5]; [Inhibitor] 0.000465979 nM, 466 fM): 5.63% and 5.16%
activity ([5]; [Inhibitor] 0.00114018 nM, 1.14 pM): 4.05% and 3.39%
activity ([5]; [Inhibitor] 0.00278983 nM, 2.79 pM): 3.12% and 3.28%
activity ([5]; [Inhibitor] 0.00682626 nM, 6.826 pM): 2.4% and 2.45%
IC50 ([5]; Table S1, read-out: IC50, LRTM): 0.051 to 0.064 nM and 0.051 to 0.059 nM
IC50 [5, 11]: 0.051 ± 0.005 nM
linking coefficients [5]: 0.5 to 1.0 M⁻¹
activity ([6]; LRTMCS, [Inhibitor] 1.3e-5 nM, read-out: percent inhibition): 95.4% and 96.9% and 90.5%
activity ([6]; LRTMCS, [Inhibitor] 3.18e-5 nM, read-out: percent inhibition): 86.7% and 90.8% and 88.7%
activity ([6]; LRTMCS, [Inhibitor] 7.78e-5 nM, read-out: percent inhibition): 65.8% and 67.4% and 61.5%
activity at 190.4 fM ([6]; LRTMCS, [Inhibitor] 0.000190441 nM, read-out: percent inhibition): 34.4%
activity at 466 fM ([6]; LRTMCS, [Inhibitor] 0.000465979 nM, read-out: percent inhibition): 15.1%
activity at 1.14 pM ([6]; LRTMCS, [Inhibitor] 0.00114018 nM, read-out: percent inhibition): 9.97%
activity at 2.79 pM ([6]; LRTMCS, [Inhibitor] 0.00278983 nM, read-out: percent inhibition): 5.05%
activity at 6.826 pM ([6]; LRTMCS, [Inhibitor] 0.00682626 nM, read-out: percent inhibition): 3.24%
activity at 16.7 pM ([6]; LRTMCS, [Inhibitor] 0.0167028 nM, read-out: percent inhibition): 1.45%
IC50 [6, 12]: 0.063 ± 0.005 nM
IC50 ([6]; read-out: IC50, LRTMCS): 0.051 to 0.064 nM
Compound: CCc1nc(-c2cccc(NC(=O)c3cccc4c3NC(=O)c3ccccc3N4)c2)c(-c2ccnc(NC(C)=O)c2)[nH]1 [Compound 3]
suppression of EGFR phosphorylation [7]: also effective in H1975 cells, however to a lesser extent than 4

Compound: CSc1nc(-c2ccc(F)cc2)c(-c2ccnc(NC(C)=O)c2)[nH]1 [Compound 5, reference compound]
IC50 [5, 10]: 6000 to 10000 nM and ≥ 6000 nM
IC50 [5, 11]: 5800 ± 300 nM
IC50 [6, 12]: 6000 ± 500 nM
IC50 ([6]; read-out: IC50, LRTMCS): 6000 to 10000 nM
